One series has as its system HLA-DR1. The series can be described thus: Determination of polypeptide affinity (fluorescence polarization competition). The settings on record: competition with 25 nM fluorescently-labeled polypeptide, 500 nM HLA-DR1, pH 7.4, 37° C. 30 min, fluorescence polarization, curve fitting. In kind it is binding, human. As for the experimental part:
The reaction system was at pH 7.4. Before use, protease inhibitor cocktail was added, and incubated at 37° C. for 30 min. The fluorescence polarization values were read. The mean value of the free labeled polypeptides was set as FP_free, and the value of the well without the competitive peptide was set as FP_no_comp. The relative binding rate of other wells was calculated according to the formula=(FP_sample−FP_free)/(FP_no_comp−FP_free). A curve was plotted using the relative binding rate and the concentration of the test polypeptide, and the IC50 value was calculated by curve fitting.
Background: Polarisation of emitted light reports the rotation of a fluorescent probe.

The subject of series [1] is CIA rats. The series is classed as in vivo, rat. The source says:
Female Lewis rats were used to establish CIA model. Methods: The rats were immunized by intradermal injection with the emulsion prepared by bovine C II and IFA at the tail head. After 7 days, the rats were boosted once with the same method. Thereafter, the morphological changes of the four paws of the rats were examined every day. […] Another 8 female Lewis rats were not subjected to model establishment and set as the control group. PBS was administrated to both the model group and the control group. […] The inflammation scores of the four paws of the rats in each group were evaluated during the administration (once every other day), and the area under the curve (AUC) of the inflammation score was calculated during the administration. During drug discontinuation, the inflammation scores of the four paws of the rats in each group were continuously evaluated (once every other day), and the rats were sacrificed on day 22 after drug discontinuation. HE staining was performed on the ankle joint for tissue injury evaluation. The specific scoring criteria were as follows: 0=normal synovial tissue; 1=synovial hyperplasia and inflammatory cell infiltration; 2=pannus formation and cartilage erosion; 3=destruction of most of the cartilage with subchondral bone erosion; 4=loss of joint integrity, ankylosis.

The test system of series [2] is CIA rats with latent tuberculosis infection. The conditions noted are these: for Observation on the daily condition of rats: during administration; for Tuberculosis recurrence rate / Inflammation score and area under the time curve (AUC) / Culture of MTB from lungs and spleens of rats at sacrifice: peptides 0.2 mmol, adalimumab 1 mg/kg; for Tuberculosis recurrence rate: 21 days; for Inflammation score and area under the time curve (AUC): tail i.v. once every other day for 21 days; for Culture of MTB from lungs and spleens of rats at sacrifice: sacrifice on day 22.

Series [3] deals with CIA rats. In words: CIA rat model: inflammation score AUC and peripheral blood T-cell subtypes (Example 3). The series is classed as in vivo. The conditions noted are these: 0.2 mmol. As for the experimental part:
Collagen-induced arthritis (CIA) model was established by intradermal injection of the emulsion formulated using type II bovine collagen (CII) together with incomplete Freund's adjuvant (IFA) into the tail head of a female Lewis rat. After the model establishment, the morphological changes of rats' four paws were examined every day. […] Except for the model group, the dosage of polypeptide was all set as 0.2 mmol. A control group was also set up, in which the drug was injected into the tail vein once every other day for […]. The area under the curve (AUC) of the inflammation score was used for the efficacy analysis from the day the rats were enrolled, once every other day, until the end of administration.

Series [4] has as its system CIA mice infected with chronic hepatitis B. In words: CIA mice infected with chronic hepatitis B (Example 8). The series is classed as in vivo, mouse. Here is the method: Establishment of chronic hepatitis B model in mice: DBA/1 mice were injected with Raav8-1. 3 HBV (1×10^12 vg/mL) via tail vein to establish HBV chronic hepatitis B model.
DBA/1 mice infected with chronic hepatitis B were used to establish CIA model with chronic hepatitis B infection. Methods: Two days after the mice were injected with Raav8-1.3 HBV (1×10^12 vg/mL) via tail vein, the emulsion of bovine C II and CFA (containing 100 μg collagen) was intradermally injected into the tail head of the mice for immunization. After 21 days, the mice were boosted once by intraperitoneal injection of the emulsion (containing 100 μg collagen) prepared by bovine C II and IFA. Thereafter, the morphological changes of the four paws of the mice were examined every day, and the mice were randomly assigned to the treatment group at inflammation score of 1. […] Another 10 mice with latent hepatitis B infection were not subjected to model establishment and set as the control group. PBS was administrated to both the model group and the control group. The mice in each group were given the corresponding drugs by tail intravenous injection at the volume of 10 ml/kg, once every other day, for 27 consecutive days. The mice were sacrificed on day 28 after administration. The inflammation scores of the four paws of the mice in each group were evaluated during the administration. The serological indicators for virus injection and liver function of the mice were detected on the day of booster immunization (22 days after tail vein injection) and at the time of sacrifice.

The subject of series [5] is immune system of healthy rats. In words: Immune indicators of SD rats after one month of administration (Example 4). In kind it is in vivo, rat. The settings on record: once a day for 4 weeks, end of administration. Here is the method: SD rats were used to investigate the effects of the SE-DR affinity peptides on the immune indicators of the rats after continuous administration for one month. […] At the end of administration, analysis was conducted on the serum anti-FNS007 antibodies, different types of serum immunoglobulins, the serum complement, the peripheral blood T lymphocyte and the serum cytokines.

In series [6] the test system is immune system of healthy monkeys. In words: Immune indicators of cynomolgus monkeys after one month of administration (Example 5). The series is classed as in vivo, cynomolgus monkey. The conditions noted are these: once a day for 4 weeks, end of administration. The source says: Cynomolgus monkeys were used to investigate the effects of the SE-DR affinity peptide on the immune indicators of cynomolgus monkeys after continuous administration for one month. […] At the end of administration, the immune indicators, including the serum anti-FNS007 antibodies, the immunoglobulins of different serotypes, the serum complement, the peripheral blood T lymphocyte and the serum cytokines, were observed.

The test system of series [7] is CIA rats. The series can be described thus: APL20 in combination with methotrexate in CIA rats (Example 11). The series is classed as in vivo, rat.
Series [8] concerns CIA rats. The series is described as above. In kind it is in vivo, rat. The text has this: Female Lewis rats were used to establish CIA model. Methods: the rats were immunized by intradermal injecting the emulsion prepared by bovine C II and IFA at the tail head. After 7 days, the rats were boosted once with the same method. Thereafter, the morphological changes of the four paws of the rats were examined every day, and the rats were randomly assigned to the treatment group at the inflammation score of 1. […] Another 8 female Lewis rats were not subjected to model establishment and set as the control group. PBS was administrated to both the model group and the control group. Corresponding drugs were administrated to the rats in each group by tail vein injection at the volume of 5 mL/kg, in which methotrexate was administrated twice a week, and other drugs were administrated once every other day, for 21 consecutive days, followed by a recovery period of 21 days. The inflammation scores of the four paws of the rats in each group were evaluated during the administration (once every other day), and the area under the curve (AUC) of the inflammation score was calculated during the administration. During drug discontinuation, the inflammation scores of the four paws of the rats in each group were continuously evaluated (once every other day), and the rats were sacrificed on day 22 after drug discontinuation. HE staining was performed on the ankle joint for tissue injury evaluation. The specific scoring criteria were as follows: 0=normal synovial tissue; 1=synovial hyperplasia and inflammatory cell infiltration; 2-pannus formation and cartilage erosion; 3=destruction of most of the cartilage with subchondral bone erosion; 4=loss of joint integrity, ankylosis.
The source holds these as a separate data set.

The test system of another series is PBMC. The series can be described thus: PBMC stimulation test, IL-6 in supernatant by ELISA. The series is classed as cell-based, human. The settings on record: PBMC 1×10^6 cell/ml, peptide 10 μg/ml, 5 days of culture. The text has this:
The SE-DR molecule is directly related to the pathogenesis of RA. It can present RA-related autoantigens in vivo, such as type II collagen (CII), heat shock protein 60 (Hsp60), cartilage glycoprotein (HCgp-39) and so on, and further activate autoreactive T cells, leading to the occurrence of rheumatoid arthritis. An important strategy for the treatment of RA is to use competitive inhibition to block the activation of autoreactive T cells by autoantigen peptides. […] Based on the above principles, we have designed and synthesized a series of altered peptide ligands, and screened for their affinity to SE-DR and for the activation ability on the peripheral blood T cells in RA patients. The specific steps and results are shown in Example 1 and Example 2.
3 mL ficoll was added to a 15 mL centrifuge tube, and 4 mL blood sample was then applied on the surface of ficoll. The tube was centrifuged at 400 g at 18-20° C. for 30-40 min. The upper layer of plasma was aspirated with a Pasteur pipette, and the PBMC layer (approximately 2 mL) was aspirated, and added to a 14 mL centrifuge tube previously filled with at least 3 volumes (6 mL) of PBS. The mixture was gently resuspended. The tube was centrifuged at 60-100 g for 10 min at 18-20° C. After centrifugation, the supernatant was removed with a Pasteur pipette, and the resulting cell mass was resuspended in 6-8 mL PBS and centrifuged at 18-20° C. for 10 min at 60-100 g to remove the supernatant. The cells were resuspended in an appropriate amount of 1640 complete medium and diluted to 1×10^6 cell/ml after cell counting. The diluted cell suspension was added to a 96-well plate. The positive control, allosteric peptide, was added to 100 μl cell culture to a final concentration of 10 μg/ml. The mixture was replenished to 200 μL with 1640 complete medium. After 5 days of culture, the supernatant was aspirated, centrifuged at 3000 rpm for 5 minutes, and the level of IL-6 in the supernatant was detected by ELISA.

Where [9] appears, read: 21 days of observation after stopping at day 21.
[10] abbreviates: HE staining of ankle joint, score 0-4.
[11] abbreviates: inflammation score AUC after stopping administration at day 21.
The mark [12] stands for this setting: inflammation score AUC, FNS007 0.2 mmol, adalimumab 1 mg/kg, i.v. once every other day.
The mark [13] stands for this setting: peripheral blood, […] after end of administration, flow cytometry.

Where two headings read alike, the source gives them in different places. Where no end group is shown, it is not given here.

Usually IC50 stands for the concentration needed to halve the response being measured. A low value points to inhibition by little substance.

In the case of RSFTAASSETGVG [APL14], the IC50 in the series with HLA-DR1 came out at 6.54 µM.

In the case of adalimumab, the “inflammation score during drug discontinuation compared with that at the time of drug discontinuation” value in the series on CIA rats [1] (setting [9]) is recorded as “significantly increased”. In addition, the “Pathological score during 21 days of drug discontinuation” value in the series on CIA rats [1] (setting [10]) turned out to be 2.69 ± 0.80. Besides, in the series with CIA rats [1] (setting [11]), the “AUC, during drug discontinuation (day 22-42)” value stood at 96.85 ± 26.51. Moreover, in the series with CIA rats [1] (setting [12]), the “AUC, during administration (day 1-21)” value is listed as 54.51 ± 22.72 and the “AUC, the first week during administration” value came out at 13.93 ± 4.81. For the same substance, the “AUC, during administration (day 1-21)” value in the series with CIA rats [1] (inflammation score AUC, FNS007 0.2 mmol, adalimumab 1 mg/kg, i.v. once every other day, listed as adalimumab) stood at 54.51. Also, in the series with CIA rats [1] (rat, in vivo), the “Incidence of infection in rats” value turned out to be 10% and the “Observation on the daily state of rats” value was “Piloerection, epistaxis, prostration, reduced activity, etc”. In series [2], the “Observation on the daily condition of rats” value was “obvious toxicity symptoms such as piloerection and reduced activity”; the Tuberculosis recurrence rate was 60%; the “Inflammation score and area under the time curve (AUC)” value (“Inflammation score and area” below) was determined as 50.42 ± 27.13; the “Culture of MTB from lungs and spleens of rats at sacrifice” value (“Culture of MTB” for short) is given as 6/10 Positive. In series [2] (listed as adalimumab), the Tuberculosis recurrence rate was 60%; the “Inflammation score and area” value was “significantly reduce the inflammation score”; the “Culture of MTB” value is “positive in 6/10 rats”.

On to AVKHNALKWA [APL52], for which the IC50 in the series on HLA-DR1 was more than 100 µM.

In the case of SIDLKDKKYKNIGAKLVQLVANNTNEEA [APL20], the “Inflammation score and area” value in the series on CIA rats [3] (female Lewis CIA rats, tail vein once every other day for 15 days) came to 55.31 ± 40.23. Further, in the series with CIA rats [3] (setting [13]), the “Th1 (%)” value was determined as 0.18 ± 0.07 %, the “Th2 (%)” value worked out at 4.35 ± 0.62 %, the “Th17 (%)” value is 0.88 ± 0.07 % and the “Treg (%)” value came to 5.46 ± 0.81 %. In addition, in series [4] (at sacrifice, day 28), the ALT level amounted to 46.28 ± 17.99 U/L and the “Hepatitis B activation rate (Ratio of ALT > 100 U/L)” value is recorded as 0%. Moreover, the “Observation on the daily condition of mice” value in series [4] (during administration) is “No abnormality”. Besides, the “Inflammation score and area” value in series [4] (peptides 50 μmol, Abatacept 100 μg, tail i.v. once every other day for 27 days) is on record as 92.34 ± 53.29. In [5], this substance returned a CD3% of 36.96 ± 9.81%, a CD4% of 18.96 ± 5.98%, a CD8% of 17.99 ± 8.23% and an IFN-γ of 2.58 ± 0.29 pg/mL. Further, in series [5], the IL-2 turned out to be 3.55 ± 2.75 pg/mL, the IL-4 was 2.03 ± 1.01 pg/mL and the TNF-α worked out at 5.09 ± 1.88 pg/mL. Also, in [6], the CD3% turned out to be 62.96 ± 9.77%, the CD4% worked out at 27.82 ± 8.05%, the CD8% is 22.97 ± 7.09% and the IFN-γ was 5.18 ± 0.33 pg/mL. In [6], this substance gave an IL-2 of 4.55 ± 0.71 pg/mL, an IL-4 of 2.16 ± 0.36 pg/mL and a TNF-α of 2.45 ± 0.38 pg/mL. The “Incidence of infection in mice” value in the series with CIA rats [7] is listed as 0%. In the series on CIA rats [8] (setting [9]), the “inflammation score during drug discontinuation compared with that at the time of drug discontinuation” value is listed as “could maintain the therapeutic effect”. Further, the “Pathological score during 21 days of drug discontinuation” value in the series on CIA rats [8] (setting [10]) is recorded as 2.05 ± 0.34. For the same substance, the “AUC, during drug discontinuation (day 22-42)” value with CIA rats [8] (setting [11]) worked out at 50.11 ± 41.27. In addition, in series [2], the “Observation on the daily condition of rats” value is recorded as “No abnormality”; the Tuberculosis recurrence rate is 0%; the “Inflammation score and area” value was 49.62 ± 35.87; the “Culture of MTB” value is reported as “Negative”. For the same substance, the “IL-6 levels in the supernatant” value with PBMC stood at 2.7 ng/mL.

These data come from patent publication US20250074946A1, “USE OF SE-DR AFFINITY PEPTIDE IN PREPARING DRUG FOR TREATING RHEUMATIC DISEASE” (HEBEI FITNESS BIOTECHNOLOGY CO., LTD., priority 2021, published 2025).
